Results from publication PMC10116527 (ACS Omega, 2023).
Where two headings read alike, the source gives them in different places.

What was measured:
PI3Kα [1] = target: T1, PI3Kα (Homo sapiens, UniProt P42336); experiment: Adapta universal kinase assay; type: biochemical; details: read-out: % inhibition against PI3Kα enzyme ± SD ^b
PI3Kα [2] = target: T1, PI3Kα; experiment: Adapta universal kinase assay; type: biochemical; details: read-out: % inhibition against PI3Kα enzyme ± SD ^b; remark: listed apart in the source

T1 sequence (P42336 whole entry): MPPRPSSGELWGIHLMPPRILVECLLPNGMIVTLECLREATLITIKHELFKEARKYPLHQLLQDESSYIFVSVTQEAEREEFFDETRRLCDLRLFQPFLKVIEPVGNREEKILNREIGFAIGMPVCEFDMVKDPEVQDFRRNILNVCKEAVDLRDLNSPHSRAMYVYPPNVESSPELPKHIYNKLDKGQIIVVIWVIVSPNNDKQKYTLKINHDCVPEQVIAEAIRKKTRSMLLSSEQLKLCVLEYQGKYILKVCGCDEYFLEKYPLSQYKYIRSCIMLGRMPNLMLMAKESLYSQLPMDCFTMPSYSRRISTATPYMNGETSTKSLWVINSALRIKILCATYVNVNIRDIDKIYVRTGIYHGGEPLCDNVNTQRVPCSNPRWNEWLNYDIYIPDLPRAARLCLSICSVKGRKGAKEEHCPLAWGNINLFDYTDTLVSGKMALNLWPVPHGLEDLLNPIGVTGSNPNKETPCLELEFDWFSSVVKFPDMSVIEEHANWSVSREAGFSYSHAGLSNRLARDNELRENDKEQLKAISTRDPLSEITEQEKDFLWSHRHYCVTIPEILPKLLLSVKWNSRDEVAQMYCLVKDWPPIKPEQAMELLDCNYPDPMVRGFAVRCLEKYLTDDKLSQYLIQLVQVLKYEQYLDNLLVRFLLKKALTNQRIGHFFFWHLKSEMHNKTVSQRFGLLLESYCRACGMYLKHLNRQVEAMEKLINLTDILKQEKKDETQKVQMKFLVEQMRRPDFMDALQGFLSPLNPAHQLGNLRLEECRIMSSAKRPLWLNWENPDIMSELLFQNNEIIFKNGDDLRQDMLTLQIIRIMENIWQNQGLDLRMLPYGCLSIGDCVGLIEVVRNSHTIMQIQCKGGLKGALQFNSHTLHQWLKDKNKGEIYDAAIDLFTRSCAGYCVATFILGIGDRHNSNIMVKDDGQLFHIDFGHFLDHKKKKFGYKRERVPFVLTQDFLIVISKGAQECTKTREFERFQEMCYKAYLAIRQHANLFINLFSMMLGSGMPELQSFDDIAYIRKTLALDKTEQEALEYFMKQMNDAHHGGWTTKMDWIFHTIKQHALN
T1 sequence (P27986 2-724, further chain): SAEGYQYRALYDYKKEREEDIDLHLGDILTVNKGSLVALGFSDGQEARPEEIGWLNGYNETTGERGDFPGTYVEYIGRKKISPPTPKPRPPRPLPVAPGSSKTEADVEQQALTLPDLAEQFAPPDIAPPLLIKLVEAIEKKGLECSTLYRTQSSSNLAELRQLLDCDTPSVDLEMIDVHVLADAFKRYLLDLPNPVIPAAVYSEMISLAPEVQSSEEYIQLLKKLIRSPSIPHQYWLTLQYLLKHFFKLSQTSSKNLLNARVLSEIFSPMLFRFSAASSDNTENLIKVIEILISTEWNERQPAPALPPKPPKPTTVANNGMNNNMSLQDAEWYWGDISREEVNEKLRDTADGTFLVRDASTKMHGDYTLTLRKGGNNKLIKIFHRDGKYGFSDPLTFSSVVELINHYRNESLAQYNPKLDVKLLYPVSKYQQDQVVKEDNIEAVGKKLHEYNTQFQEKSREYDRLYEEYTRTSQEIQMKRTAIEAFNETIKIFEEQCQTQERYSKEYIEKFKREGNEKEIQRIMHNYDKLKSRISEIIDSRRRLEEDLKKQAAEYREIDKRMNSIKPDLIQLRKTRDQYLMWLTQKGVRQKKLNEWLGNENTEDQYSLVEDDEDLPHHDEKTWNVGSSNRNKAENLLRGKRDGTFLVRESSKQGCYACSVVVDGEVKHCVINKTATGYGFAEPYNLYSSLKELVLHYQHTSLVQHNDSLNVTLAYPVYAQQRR

| inhibition at 100 µM (PI3Kα [1]) [%] | inhibition at 100 µM (PI3Kα [2]) [%] | Structure (SMILES) |
| --- | --- | --- |
| 46 |  | CCN(CC)c1nc(NCc2ccccc2)nc(Nc2ccc(S(=O)(=O)Nc3ccccn3)cc2)n1 [compound 20, 4-{[4-(Benzylamino)-6-(diethylamino)-1,3,5-triazin-2-yl]amino}-N-(pyridin-2-yl)benzene-1-sulfonamide] |
|  | 68 ± 3 | CCN(CC)c1nc(Nc2ccc(S(=O)(=O)NC(=N)N)cc2)nc(N2CCOCC2)n1 [compound 34, 1-(4-{[4-(Diethylamino)-6-(morpholin-4-yl)-1,3,5-triazin-2-yl]amino}benzene-sulfonyl)guanidine] |
